Laboratory results published in patent US20050238679A1, “Taurine-containing preparations for improving the skin barrier” (Beiersdorf AG, priority 2004, published 2005).

Assay: stability of taurine under customary storage conditions
Format: physicochemical
Conditions: various pH values (5<pH<7), customary storage conditions (+6° C., −10° C., rocking test)
Text: On account of its solubility in water, it is used in various bases such as O/W creams, W/O creams, PIT emulsions, hydrous sticks, hydrodispersions etc. […] Dry skin has a reduced skin barrier. Taurine brings about an increase in the skin moisturization of cosmetic preparations. Moisturization of dry skin brings about a strengthening of the skin barrier, which means that foreign substances can penetrate less easily through the skin into the deeper skin layers. However, taurine applied to the skin penetrates […] into the lower skin layers.

| stability | SMILES |
| --- | --- |
| very good stability | NCCS(=O)(=O)O [Taurine, 2-aminoethanesulphonic acid] |

Assay: interfacial tension towards water as measure of polarity of lipids
Format: physicochemical
Conditions: lipid/oil component against water; regarded as polar if less than 30 mN/m
Text: Oils and fats differ from one another in their polarity, which is difficult to define. It has already been proposed to adopt the interfacial tension towards water as a measure of the polarity index of an oil or of an oily phase. Then, the lower the interfacial tension between this oily phase and water, the greater the polarity of the oily phase in question. According to the invention, the interfacial tension is regarded as one possible measure of the polarity of a given oil component.
The interfacial tension is the force which acts on an imaginary line one meter in length in the interface between two phases. The physical unit for this interfacial tension is conventionally calculated from the force/length relationship and is usually expressed in mN/m (millinewtons divided by meters). It has a positive sign if it endeavours to reduce the interface. In the converse case, it has a negative sign. For the purposes of the present invention, lipids are regarded as polar if their interfacial tension towards water is less than 30 mN/m.
Nonpolar oils are, for example, those which are chosen from the group of branched and unbranched hydrocarbons and hydrocarbon waxes, in particular Vaseline (petrolatum), paraffin oil, squalane and squalene, polyolefins and hydrogenated polyisobutenes. Among the polyolefins, polydecenes are the preferred substances.

| SMILES | interfacial tension towards water [mN/m] |
| --- | --- |
| CCCCCCCCCCCCCCCCCC(=O)OC(C)C [Isopropyl stearate, Isopropyl Stearate] | 21.9 |
| CCCCCCCCCCCCCC(=O)OCC(CCCCCCCC)CCCCCCCCCC (stereo not shown) [MOD, Octyldodeceyl Myristate] | 22.1 |
| CCCCCCCC(=O)OCC(COC(=O)CCCCCCC)OC(=O)CCCCCCC [TRIVENT ® OCG, Tricaprylin] | 20.2 |

Now from value to compound:

| interfacial tension towards water [mN/m] | SMILES |
| --- | --- |
| 28.4 | CCCCCCCCCCCCCCCCCC(=O)OCCCCCCCC [CETIOL ® 868, Octyl Stearate] |
| 29.7 | CCCCCCCCOC(=O)CCCCCCCCCCCCCCC(C)C [PRISORINE ® 2036, Octyl Isostearate] |
| 28.7 | CCCCCCCCCCCCCCCCCCOC(=O)CCCCCC [TEGOSOFT ® SH, Stearyl Heptanoate] |
